The source of these data is patent publication US11993581B2, “Pyridazine compounds for inhibiting Nav1.8” (Lieber Institute, Inc., priority 2018, dated 2024).

For this assay, the target named is T1, human Nav1.8 (hNav1.8) ion channel (Homo sapiens, UniProt Q9Y5Y9).
T1 construct: expressed in transfected cells
Nature of the assay: Nav1.8 inhibition, estimated IC50 (Nav1.8 fluorescence, PatchXpress and/or IonFlux HT automated patch clamp assay). The class given is cell-based. The settings on record: HEK293 cells stably expressing hNav1.8; determined using one or more of the described methods; read-out: Activity range (estimated IC50). The method, then:
The ability of pyridine carboxamide derivatives exemplified above to inhibit the Nav1.8 channel was determined using one or more of the methods described below.
HEK Nav1.8 β1/β2 Stably Expressing Cell Line
A HEK293 cell line stably expressing the human Nav1.8 (hNav1.8) ion channel with β1/β2 subunits was constructed. The cell line is suitable for IC50 determination in fluorescence and electrophysiological based assays. It is also suitable to conduct mechanism of action pharmacology studies in electrophysiological assays. HEK293 Nav1.8 cells are grown as adherent monolayers in DMEM/high glucose media, 10% fetal bovine serum, Na pyruvate (2 mM), Hepes (10 mM) with selection agents G418 (400 mg/L) and puromycin (0.5 mg/L) at 37 degrees C., 10% CO2.
Nav1.8 Fluorescence Inhibition Assay
Compounds were made up to or supplied as a 10-mM stock solution using DMSO as the vehicle. Concentration-response curves were generated using a Matrix multichannel pipettor. Compound source plates were made by diluting 10 mM compound stocks to create 500 μM (100×) solutions in DMSO in 96-well v-bottom plates. Compounds were then serially diluted in 100% DMSO to generate a 5 point, 4-fold dilution scheme dose response curve. 2 μL of the 100× dose response curves were then added to preincubation and stimulation assay plates. 100 μL of pre-incubation buffer and 200 μl of stimulation buffer was then added to the plates resulting in a final assay test concentration range of 5 μM to 0.02 μM with a final DMSO concentration of 1%.
On the day of assay, plates were washed to remove cell culture media using 2K EBSS buffer (135 mM NaCl, 2 mM KCl, 5 mM Glucose, 2 mM CaCl2, 1 mM MgCl2, 10 mM HEPES, pH 7.4). The Na-sensitive fluorescent dye, Asante Natrium Green-2 (ANG-2) was incubated for 60 min to allow equilibration and then washed with 2K EBSS. Plates were then transferred to a fluorescence plate reader (FLIPR™, Molecular Devices) for fluorescence measurement using an excitation wavelength of 490 nm and an emission wavelength of 565 nm. Compounds were pre-incubated for 5 min at final test concentration in the presence of ouabain (30 μM) to inhibit Na+ efflux through Na+/K+ exchanger. Following the pre-incubation phase, hNav1.8 channels were stimulated with 10 μM of the pyrethroid deltamethrin to prevent channel inactivation. The assay was run for 15 minutes with vehicle and 30 μM tetracaine serving as negative and positive controls, respectively. The peak change in fluorescence relative to negative and positive control wells was calculated and fit with a logistic equation to determine IC50.
PatchXpress Nav1.8 Inhibition Assay
HEK-Nav1.8 β1/β2 cells were recorded in whole cell patch-clamp using the PatchXpress automated patch clamp platforms (Molecular Devices). Cell suspensions were obtained by trypsinization of adherent monolayers, followed by gentle rocking for minimally 30 min. Compounds were prepared from 10 mM DMSO stocks.
Nav1.8 channel variants were evaluated using Protocol 1 in which cells were initially voltage clamped at a holding potential of −100 mV to maintain Nav1.8 in a closed resting state. After current amplitude becomes stable, the mid-point voltage of steady state inactivation was determined for each cell using a series of 5 sec conditioning steps to increasingly depolarized voltages (−100 to 0 mV) The holding potential was then reset to a voltage that produces ˜50% inactivation (Vhalf-set automatically via PatchXpress scripts) so that closed and inactivated channel inhibition could be assessed. Protocol 1 was run at a frequency of 0.1 Hz until current amplitude is steady (automatically determined by PatchXpress scripts). The effect of test reagent on Nav current amplitude was monitored using custom PatchXpress stability scripts which determines the timing of compound addition and washout.
Data were processed and analyzed using DataXpress 2.0 (Molecular Devices). […]

T1 sequence (Q9Y5Y9 whole entry): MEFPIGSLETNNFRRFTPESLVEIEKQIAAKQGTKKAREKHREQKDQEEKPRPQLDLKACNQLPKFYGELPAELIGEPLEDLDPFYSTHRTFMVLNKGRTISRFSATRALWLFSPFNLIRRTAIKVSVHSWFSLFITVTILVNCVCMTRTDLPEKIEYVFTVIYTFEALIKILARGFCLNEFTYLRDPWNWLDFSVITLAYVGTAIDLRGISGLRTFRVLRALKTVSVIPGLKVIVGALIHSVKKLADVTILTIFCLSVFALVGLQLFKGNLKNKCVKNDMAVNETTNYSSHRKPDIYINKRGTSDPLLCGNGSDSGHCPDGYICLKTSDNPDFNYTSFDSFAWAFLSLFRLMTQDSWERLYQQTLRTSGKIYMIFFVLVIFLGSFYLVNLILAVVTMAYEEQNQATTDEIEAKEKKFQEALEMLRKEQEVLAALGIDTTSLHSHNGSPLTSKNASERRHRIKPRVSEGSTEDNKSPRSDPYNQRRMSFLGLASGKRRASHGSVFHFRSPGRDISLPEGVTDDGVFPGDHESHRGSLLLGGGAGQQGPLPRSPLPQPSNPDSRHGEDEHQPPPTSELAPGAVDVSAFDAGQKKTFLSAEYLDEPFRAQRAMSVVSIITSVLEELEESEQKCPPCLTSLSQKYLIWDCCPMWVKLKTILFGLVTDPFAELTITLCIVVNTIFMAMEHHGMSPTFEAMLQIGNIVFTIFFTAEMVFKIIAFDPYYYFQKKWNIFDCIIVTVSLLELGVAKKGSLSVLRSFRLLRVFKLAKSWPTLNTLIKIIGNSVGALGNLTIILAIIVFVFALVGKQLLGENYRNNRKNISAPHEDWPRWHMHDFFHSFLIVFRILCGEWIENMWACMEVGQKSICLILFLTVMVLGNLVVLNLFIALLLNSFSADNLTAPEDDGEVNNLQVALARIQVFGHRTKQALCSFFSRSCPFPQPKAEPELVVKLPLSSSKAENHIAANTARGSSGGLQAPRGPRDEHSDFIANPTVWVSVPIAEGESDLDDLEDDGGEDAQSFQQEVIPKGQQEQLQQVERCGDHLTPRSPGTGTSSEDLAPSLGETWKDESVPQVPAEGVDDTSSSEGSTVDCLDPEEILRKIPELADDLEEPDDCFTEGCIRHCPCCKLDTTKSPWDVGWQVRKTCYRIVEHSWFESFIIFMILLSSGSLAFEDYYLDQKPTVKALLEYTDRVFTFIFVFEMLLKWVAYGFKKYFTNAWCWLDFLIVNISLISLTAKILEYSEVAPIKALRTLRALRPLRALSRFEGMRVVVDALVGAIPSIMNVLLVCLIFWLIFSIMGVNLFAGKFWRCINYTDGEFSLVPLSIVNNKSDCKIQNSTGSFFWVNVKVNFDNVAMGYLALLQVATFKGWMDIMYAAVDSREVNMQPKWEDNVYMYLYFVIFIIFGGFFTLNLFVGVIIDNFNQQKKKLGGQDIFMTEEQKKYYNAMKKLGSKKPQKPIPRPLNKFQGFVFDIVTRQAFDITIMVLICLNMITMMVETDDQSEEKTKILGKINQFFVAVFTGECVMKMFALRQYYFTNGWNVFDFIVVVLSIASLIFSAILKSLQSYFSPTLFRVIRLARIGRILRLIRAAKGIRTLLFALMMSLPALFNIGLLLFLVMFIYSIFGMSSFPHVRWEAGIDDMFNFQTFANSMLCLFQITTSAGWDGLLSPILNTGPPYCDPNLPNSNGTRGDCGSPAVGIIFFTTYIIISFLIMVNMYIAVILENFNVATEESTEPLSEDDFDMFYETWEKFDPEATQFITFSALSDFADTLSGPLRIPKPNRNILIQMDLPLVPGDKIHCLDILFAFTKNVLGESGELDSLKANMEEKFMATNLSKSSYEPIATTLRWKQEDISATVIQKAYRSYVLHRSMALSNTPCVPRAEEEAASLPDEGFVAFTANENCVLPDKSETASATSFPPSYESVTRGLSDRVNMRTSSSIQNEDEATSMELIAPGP
T1 sequence (Q07699 19-218 partner): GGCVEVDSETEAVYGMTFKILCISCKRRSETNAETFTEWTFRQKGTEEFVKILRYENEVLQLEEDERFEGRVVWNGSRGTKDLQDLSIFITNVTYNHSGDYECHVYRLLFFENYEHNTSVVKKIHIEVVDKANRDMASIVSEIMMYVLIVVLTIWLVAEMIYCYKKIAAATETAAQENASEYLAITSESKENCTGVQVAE

As to `O=C(NCc1ccccc1N1CCOCC1)c1cnnc(-c2ccc(Cl)cc2)c1` [Example 55, 6-(4-chlorophenyl)-N-[(2-morpholinophenyl)methyl]pyridazine-4-carboxamide], the IC50 was < 0.5 µM.

For the molecule `O=C(NCc1ccccc1N1CCOCC1)c1cnnc(-c2ccc(OC(F)(F)F)cc2)c1` [Example 57, 6-[4-(trifluoromethoxy)phenyl]-N-[(2-morpholinophenyl)methyl]pyridazine-4-carboxamide], the IC50 was < 0.5 µM.

Turning to `N#Cc1ccc(-c2cc(C(=O)NCc3ccccc3N3CCOCC3)cnn2)cc1` [Example 58, 6-(4-cyanophenyl)-N-[(2-morpholinophenyl)methyl]pyridazine-4-carboxamide], the IC50 was < 0.5 µM.

In the case of `Cc1ccnc(N2CCOCC2)c1CNC(=O)c1cnnc(-c2ccc(OC(F)(F)F)cc2)c1` [Example 59, N-[(4-methyl-2-morpholino-3-pyridyl)methyl]-6-[4-(trifluoromethoxy)phenyl]pyridazine-4-carboxamide], the IC50 was < 0.5 µM.

As for `Cc1ccnc(N2CCOCC2)c1CNC(=O)c1cnnc(-c2ccc(Cl)cc2)c1` [Example 60, 6-(4-chlorophenyl)-N-[(4-methyl-2-morpholino-3-pyridyl)methyl]pyridazine-4-carboxamide], the IC50 was < 0.5 µM.
